Laboratory results from patent publication US10670605B2, “Cysteine reactive probes and uses thereof” (The Scripps Research Institute, priority 2015, dated 2020).

Legend:
[1] = molecular target: O114933_C98 (Homo sapiens, UniProt O14933); assay: Competitive isoTOP-ABPP, cell lysates; assay type: binding; details: 500 μm
[2] = molecular target: T1, cysteines in MDA-MB-231 and Ramos cells (Homo sapiens, UniProt O75439); assay: Competitive isoTOP-ABPP in situ (fragment-treated cells); assay type: cell-based; details: 200 μM, insitu, 231
T1 sequence (O75439 44-489): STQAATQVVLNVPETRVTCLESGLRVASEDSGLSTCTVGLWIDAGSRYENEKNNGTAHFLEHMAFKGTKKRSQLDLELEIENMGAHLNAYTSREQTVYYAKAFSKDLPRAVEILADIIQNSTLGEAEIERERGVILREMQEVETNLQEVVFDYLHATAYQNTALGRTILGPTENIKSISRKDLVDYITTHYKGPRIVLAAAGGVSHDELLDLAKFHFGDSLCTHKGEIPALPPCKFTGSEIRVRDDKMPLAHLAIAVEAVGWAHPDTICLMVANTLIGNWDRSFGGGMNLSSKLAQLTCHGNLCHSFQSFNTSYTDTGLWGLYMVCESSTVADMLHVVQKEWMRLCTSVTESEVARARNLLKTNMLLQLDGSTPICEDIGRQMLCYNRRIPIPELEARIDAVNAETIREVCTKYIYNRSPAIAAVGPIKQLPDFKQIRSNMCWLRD

[3] = molecular target: O00541_C272 (Homo sapiens, UniProt O00541); assay: Competitive isoTOP-ABPP, cell lysates; assay type: binding
[4] = molecular target: T2, cysteines in MDA-MB-231 and Ramos cells (Homo sapiens, UniProt P24468); assay: Competitive isoTOP-ABPP in situ (fragment-treated cells); assay type: cell-based
T2 sequence (P24468 1-414): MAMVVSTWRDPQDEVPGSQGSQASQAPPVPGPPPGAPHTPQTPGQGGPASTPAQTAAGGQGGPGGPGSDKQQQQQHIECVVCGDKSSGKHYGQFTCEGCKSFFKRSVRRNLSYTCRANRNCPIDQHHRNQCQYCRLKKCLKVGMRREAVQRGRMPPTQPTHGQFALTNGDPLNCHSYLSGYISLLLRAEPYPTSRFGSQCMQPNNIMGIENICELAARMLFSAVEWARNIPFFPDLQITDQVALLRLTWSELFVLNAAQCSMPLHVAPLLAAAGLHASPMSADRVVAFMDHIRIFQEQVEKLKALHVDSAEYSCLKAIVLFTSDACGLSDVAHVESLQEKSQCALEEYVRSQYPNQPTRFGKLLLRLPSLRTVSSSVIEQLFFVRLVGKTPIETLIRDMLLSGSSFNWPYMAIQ

[5] = molecular target: cysteines in MDA-MB-231 and Ramos cells (Homo sapiens, UniProt P27707); assay: as above; assay type: cell-based
[6] = molecular target: cysteines in MDA-MB-231 and Ramos cells (Homo sapiens, UniProt Q14790); assay: as above; assay type: cell-based; details: for isoTOP-ABPP ratio Q14790_C360: 200 μM, insitu, 231
[7] = molecular target: cysteines in MDA-MB-231 and Ramos cells (Homo sapiens, UniProt Q9UJW0); assay: as above; assay type: cell-based; details: 200 μM, insitu
[8] = molecular target: cysteines in MDA-MB-231 and Ramos cells (Homo sapiens, UniProt P52948); assay: as above; assay type: cell-based; details: 200 μM, insitu, 231
[9] = molecular target: cysteines in MDA-MB-231 and Ramos cells (Homo sapiens, UniProt P68366); assay: as above; assay type: cell-based
[10] = molecular target: cysteines in MDA-MB-231 and Ramos cells (Homo sapiens, UniProt Q14137); assay: as above; assay type: cell-based
[11] = molecular target: T3, cysteines in MDA-MB-231 and Ramos cells (Homo sapiens, UniProt Q96EB1); assay: as above; assay type: cell-based
T3 sequence (Q96EB1 1-424): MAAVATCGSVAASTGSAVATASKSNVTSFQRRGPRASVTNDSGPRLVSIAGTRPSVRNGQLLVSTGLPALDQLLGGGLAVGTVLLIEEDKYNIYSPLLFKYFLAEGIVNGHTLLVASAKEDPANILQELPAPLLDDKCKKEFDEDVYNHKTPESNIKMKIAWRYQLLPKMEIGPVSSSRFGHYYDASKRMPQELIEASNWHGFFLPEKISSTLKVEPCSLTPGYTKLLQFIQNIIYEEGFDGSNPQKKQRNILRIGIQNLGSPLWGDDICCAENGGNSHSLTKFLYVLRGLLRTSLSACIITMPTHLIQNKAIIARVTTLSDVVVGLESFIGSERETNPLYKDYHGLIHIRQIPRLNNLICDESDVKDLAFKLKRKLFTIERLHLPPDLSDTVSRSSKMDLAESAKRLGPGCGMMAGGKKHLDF

[12] = molecular target: T4, cysteines in MDA-MB-231 and Ramos cells (Homo sapiens, UniProt Q9Y5Y2); assay: as above; assay type: cell-based; details: 200 μM, insitu
T4 sequence (Q9Y5Y2 1-271): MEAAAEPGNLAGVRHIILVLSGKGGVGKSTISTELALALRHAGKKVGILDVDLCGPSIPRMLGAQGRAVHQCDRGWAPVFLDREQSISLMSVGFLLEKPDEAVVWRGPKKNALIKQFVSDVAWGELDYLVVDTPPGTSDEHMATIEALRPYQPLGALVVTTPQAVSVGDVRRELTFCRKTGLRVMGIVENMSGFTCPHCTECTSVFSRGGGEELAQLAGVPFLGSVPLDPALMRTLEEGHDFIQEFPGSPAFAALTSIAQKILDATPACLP

[13] = molecular target: T5, cysteines in MDA-MB-231 and Ramos cells (Homo sapiens, UniProt Q9NPH0); assay: as above; assay type: cell-based; details: 100 μM in situ 231
T5 sequence (Q9NPH0 33-428): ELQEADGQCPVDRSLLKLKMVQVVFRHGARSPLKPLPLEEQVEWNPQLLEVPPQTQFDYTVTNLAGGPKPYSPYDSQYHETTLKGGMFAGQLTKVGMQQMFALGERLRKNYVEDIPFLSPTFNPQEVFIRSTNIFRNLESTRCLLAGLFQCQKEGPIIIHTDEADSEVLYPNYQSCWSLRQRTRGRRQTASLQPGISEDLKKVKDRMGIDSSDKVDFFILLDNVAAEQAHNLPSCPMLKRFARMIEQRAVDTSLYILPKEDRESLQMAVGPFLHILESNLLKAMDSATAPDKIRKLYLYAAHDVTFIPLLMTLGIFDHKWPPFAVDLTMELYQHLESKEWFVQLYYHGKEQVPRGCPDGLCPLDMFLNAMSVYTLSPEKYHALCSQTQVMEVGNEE

cysteines in MDA-MB-231 and Ramos cells (Homo sapiens, UniProt P27707), sequence (P27707 whole entry): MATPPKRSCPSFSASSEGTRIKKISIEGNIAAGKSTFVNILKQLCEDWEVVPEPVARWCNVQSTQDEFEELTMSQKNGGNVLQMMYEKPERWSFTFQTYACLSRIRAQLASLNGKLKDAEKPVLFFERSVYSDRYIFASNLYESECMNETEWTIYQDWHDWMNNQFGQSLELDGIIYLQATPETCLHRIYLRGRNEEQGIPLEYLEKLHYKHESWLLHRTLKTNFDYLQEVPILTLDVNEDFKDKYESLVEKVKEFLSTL
cysteines in MDA-MB-231 and Ramos cells (Homo sapiens, UniProt Q9UJW0), sequence (Q9UJW0 whole entry): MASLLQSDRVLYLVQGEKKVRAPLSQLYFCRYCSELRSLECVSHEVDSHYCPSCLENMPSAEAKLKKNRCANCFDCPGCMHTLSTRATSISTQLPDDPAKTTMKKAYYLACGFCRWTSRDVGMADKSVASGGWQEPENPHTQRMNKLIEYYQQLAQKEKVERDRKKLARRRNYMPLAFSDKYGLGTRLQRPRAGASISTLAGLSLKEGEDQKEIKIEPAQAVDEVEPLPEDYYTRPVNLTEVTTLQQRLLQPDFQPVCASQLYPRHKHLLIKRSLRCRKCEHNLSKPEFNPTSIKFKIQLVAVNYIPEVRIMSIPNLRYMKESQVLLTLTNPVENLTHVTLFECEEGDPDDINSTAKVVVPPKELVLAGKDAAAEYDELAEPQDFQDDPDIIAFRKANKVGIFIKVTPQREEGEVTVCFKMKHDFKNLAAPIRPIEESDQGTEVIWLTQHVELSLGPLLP
O114933_C98, sequence (O14933 whole entry, the tested form may be a part): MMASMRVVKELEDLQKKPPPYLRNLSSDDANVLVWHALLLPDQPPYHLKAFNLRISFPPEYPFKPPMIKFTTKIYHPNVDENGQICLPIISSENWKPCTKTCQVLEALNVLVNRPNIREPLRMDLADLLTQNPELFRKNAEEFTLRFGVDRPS
cysteines in MDA-MB-231 and Ramos cells (Homo sapiens, UniProt Q14790), sequence (Q14790 217-479): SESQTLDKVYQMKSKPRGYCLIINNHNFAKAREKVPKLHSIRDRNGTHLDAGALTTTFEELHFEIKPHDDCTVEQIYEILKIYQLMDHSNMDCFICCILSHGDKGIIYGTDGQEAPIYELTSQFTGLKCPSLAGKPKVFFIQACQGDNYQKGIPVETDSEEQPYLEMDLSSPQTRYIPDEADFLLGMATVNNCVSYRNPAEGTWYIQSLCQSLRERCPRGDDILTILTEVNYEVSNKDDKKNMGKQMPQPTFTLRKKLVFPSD
cysteines in MDA-MB-231 and Ramos cells (Homo sapiens, UniProt P52948), sequence (P52948 whole entry): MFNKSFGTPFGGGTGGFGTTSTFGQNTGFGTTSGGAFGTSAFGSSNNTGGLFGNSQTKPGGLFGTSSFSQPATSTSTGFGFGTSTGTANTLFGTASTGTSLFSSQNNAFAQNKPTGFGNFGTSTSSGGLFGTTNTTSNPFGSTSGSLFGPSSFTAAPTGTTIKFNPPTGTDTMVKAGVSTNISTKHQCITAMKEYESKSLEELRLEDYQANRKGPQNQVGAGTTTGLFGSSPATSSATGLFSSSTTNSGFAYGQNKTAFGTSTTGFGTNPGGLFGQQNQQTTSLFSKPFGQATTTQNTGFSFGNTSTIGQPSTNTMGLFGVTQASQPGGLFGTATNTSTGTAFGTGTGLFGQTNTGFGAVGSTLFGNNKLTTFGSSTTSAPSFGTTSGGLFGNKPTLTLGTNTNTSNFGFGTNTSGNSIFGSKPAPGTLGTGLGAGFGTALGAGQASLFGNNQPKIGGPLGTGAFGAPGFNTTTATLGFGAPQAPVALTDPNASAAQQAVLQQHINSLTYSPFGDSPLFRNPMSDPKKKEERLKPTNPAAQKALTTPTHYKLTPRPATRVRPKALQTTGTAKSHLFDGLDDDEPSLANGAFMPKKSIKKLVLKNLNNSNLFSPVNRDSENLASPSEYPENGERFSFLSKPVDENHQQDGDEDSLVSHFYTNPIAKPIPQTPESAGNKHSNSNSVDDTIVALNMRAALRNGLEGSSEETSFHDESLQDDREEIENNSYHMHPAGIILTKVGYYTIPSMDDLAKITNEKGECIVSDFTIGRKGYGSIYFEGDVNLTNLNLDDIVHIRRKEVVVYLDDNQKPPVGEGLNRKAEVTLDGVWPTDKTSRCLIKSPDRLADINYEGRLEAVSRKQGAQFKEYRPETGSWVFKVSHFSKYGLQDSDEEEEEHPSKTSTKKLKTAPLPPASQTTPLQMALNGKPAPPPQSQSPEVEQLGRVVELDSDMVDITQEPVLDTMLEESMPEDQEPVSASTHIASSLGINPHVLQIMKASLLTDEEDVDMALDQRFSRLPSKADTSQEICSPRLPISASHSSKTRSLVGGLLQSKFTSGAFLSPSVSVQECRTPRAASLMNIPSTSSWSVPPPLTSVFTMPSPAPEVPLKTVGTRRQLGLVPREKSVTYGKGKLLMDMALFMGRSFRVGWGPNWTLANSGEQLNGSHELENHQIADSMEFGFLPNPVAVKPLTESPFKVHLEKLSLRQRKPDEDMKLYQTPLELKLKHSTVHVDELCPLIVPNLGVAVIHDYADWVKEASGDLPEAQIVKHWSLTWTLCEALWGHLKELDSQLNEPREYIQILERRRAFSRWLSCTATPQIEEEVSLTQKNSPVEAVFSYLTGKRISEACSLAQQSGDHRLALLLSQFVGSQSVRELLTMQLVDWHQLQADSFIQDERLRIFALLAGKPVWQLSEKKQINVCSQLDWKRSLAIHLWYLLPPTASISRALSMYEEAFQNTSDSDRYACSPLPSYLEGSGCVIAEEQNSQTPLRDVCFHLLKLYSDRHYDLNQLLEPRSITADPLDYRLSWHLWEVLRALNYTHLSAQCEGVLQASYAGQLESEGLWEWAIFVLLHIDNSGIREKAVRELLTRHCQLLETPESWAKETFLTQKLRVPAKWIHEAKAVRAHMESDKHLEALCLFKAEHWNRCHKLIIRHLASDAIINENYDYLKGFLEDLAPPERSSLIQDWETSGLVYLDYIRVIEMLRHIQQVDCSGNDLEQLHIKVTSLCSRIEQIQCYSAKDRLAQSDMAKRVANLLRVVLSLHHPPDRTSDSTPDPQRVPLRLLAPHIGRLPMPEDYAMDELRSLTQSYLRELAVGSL
cysteines in MDA-MB-231 and Ramos cells (Homo sapiens, UniProt P68366), sequence (P68366 whole entry): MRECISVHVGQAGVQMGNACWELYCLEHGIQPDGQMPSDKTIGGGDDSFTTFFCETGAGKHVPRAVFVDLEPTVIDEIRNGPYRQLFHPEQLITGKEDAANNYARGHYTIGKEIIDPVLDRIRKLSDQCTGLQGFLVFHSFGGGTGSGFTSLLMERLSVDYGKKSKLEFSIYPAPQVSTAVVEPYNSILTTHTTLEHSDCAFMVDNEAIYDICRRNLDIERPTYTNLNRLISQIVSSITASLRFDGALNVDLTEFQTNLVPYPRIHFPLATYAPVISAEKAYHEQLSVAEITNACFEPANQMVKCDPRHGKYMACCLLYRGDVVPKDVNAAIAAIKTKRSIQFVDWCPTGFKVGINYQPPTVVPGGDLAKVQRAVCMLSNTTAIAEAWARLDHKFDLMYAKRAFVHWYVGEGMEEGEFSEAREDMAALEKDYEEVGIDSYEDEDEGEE
cysteines in MDA-MB-231 and Ramos cells (Homo sapiens, UniProt Q14137), sequence (Q14137 whole entry): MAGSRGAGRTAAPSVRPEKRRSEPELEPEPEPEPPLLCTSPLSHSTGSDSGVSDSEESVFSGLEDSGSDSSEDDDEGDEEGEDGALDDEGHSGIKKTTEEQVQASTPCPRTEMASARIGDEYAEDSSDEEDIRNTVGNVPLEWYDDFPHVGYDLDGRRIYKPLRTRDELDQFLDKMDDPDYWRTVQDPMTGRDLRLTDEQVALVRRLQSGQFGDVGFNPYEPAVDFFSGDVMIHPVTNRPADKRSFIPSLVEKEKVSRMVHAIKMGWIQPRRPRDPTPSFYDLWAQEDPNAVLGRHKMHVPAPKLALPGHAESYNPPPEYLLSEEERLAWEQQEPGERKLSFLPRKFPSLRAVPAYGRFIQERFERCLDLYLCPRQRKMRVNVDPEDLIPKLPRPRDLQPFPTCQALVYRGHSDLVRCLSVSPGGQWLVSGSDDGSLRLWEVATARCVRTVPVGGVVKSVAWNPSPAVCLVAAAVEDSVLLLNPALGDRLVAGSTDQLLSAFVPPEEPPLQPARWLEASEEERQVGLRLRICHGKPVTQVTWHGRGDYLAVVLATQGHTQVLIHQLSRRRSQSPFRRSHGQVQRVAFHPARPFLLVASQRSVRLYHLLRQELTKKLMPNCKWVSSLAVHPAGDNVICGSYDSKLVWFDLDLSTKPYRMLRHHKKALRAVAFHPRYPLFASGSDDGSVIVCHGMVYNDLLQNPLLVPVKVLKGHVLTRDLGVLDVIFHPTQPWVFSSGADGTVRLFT
O00541_C272, sequence (O00541 whole entry, looked up, the tested form may be a part): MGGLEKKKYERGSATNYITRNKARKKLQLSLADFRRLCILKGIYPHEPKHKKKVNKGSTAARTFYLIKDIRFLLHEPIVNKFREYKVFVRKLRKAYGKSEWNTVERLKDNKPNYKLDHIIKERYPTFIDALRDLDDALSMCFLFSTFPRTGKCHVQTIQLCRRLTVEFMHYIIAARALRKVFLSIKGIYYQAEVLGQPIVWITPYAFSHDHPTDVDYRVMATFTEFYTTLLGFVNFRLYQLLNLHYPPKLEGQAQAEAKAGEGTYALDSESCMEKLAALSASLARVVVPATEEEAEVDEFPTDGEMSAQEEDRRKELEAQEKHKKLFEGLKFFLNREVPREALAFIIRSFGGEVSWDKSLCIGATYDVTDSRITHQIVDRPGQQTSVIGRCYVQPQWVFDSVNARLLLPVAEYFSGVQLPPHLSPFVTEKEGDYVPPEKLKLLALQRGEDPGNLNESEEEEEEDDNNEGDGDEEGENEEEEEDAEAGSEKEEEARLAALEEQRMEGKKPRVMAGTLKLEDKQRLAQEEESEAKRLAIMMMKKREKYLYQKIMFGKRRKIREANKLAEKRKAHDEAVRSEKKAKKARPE

O=C(CCl)N1CCc2cc(Br)ccc21 [compound 50]
isoTOP-ABPP reactivity profile ratio, O114933_C98 ([1]; in-vitro_ramos_231): 1.5

N#CC(=Cc1ccc(-c2ccccc2Cl)o1)C(N)=O [compound 42]
isoTOP-ABPP reactivity profile ratio, O114933_C98 ([1]; in-vitro_ramos): 1.0

COc1ccccc1OCCNC(=O)CCl [compound 28]
isoTOP-ABPP ratio O75439_C265 [2]: 0.6

CC(Br)C(=O)Nc1cc(C(F)(F)F)cc(C(F)(F)F)c1 (centres unmarked) [compound 24]
isoTOP-ABPP ratio (reactivity profile), O00541_C272 ([3]; 500 μm in-vitro ramos): 2.6

Cc1ccc(C=C(C#N)C(=O)NCCN2CCOCC2)cc1 [compound 41]
isoTOP-ABPP ratio O75439_C265 [2]: 1.3
isoTOP-ABPP ratio P24468_C326 ([4]; 200 μM, insitu, 231): 0.8
isoTOP-ABPP ratio P27707_C9 ([5]; 200 μM, insitu, 231): 0.4
isoTOP-ABPP ratio Q14790_C360 [6]: 0.5
isoTOP-ABPP ratio Q9UJW0_C258 [7]; 231: 0.7

O=C(CCl)NC(=O)NC12CC3CC(CC(C3)C1)C2 [compound 12]
isoTOP-ABPP ratio P27707_C9 ([5]; 200 μM, insitu, 231): 1.4
isoTOP-ABPP ratio, cysteine P52948_C1312 [8]: 20.0
isoTOP-ABPP ratio Q9UJW0_C258 [7]; 231: 20.0

O=C(CCl)NCCc1c[nH]c2ccccc12 [compound 13]
isoTOP-ABPP ratio P27707_C9 ([5]; 200 μM, insitu, 231): 1.0
isoTOP-ABPP ratio P27707_C9 ([5]; 200 μM, insitu, ramos): 1.3
isoTOP-ABPP ratio, cysteine P52948_C1312 [8]: 1.2
isoTOP-ABPP ratio P68366_C54 ([9]; 200 μM, insitu, ramos): 1.3
isoTOP-ABPP ratio, cysteine Q14137_C404 ([10]; 200 μM, insitu, 231): 1.1
isoTOP-ABPP ratio Q14790_C360 [6]: 1.2
isoTOP-ABPP ratio, cysteine Q96EB1_C218 ([11]; 200 μM, insitu, 231): 1.2
isoTOP-ABPP ratio, cysteine Q96EB1_C218 ([11]; 200 μM, insitu, ramos): 1.7
isoTOP-ABPP ratio Q9UJW0_C258 ([7]; ramos): 1.9
isoTOP-ABPP ratio, cysteine Q9Y5Y2_C72 ([12]; ramos): 1.5

O=C(CCl)N1CCOCC1 [compound 22]
isoTOP-ABPP ratio (reactivity profile), O00541_C272 ([3]; 500 μm in-vitro ramos_231): 1.6

O=C(CCl)N1CCC(Cc2ccccc2)CC1 [compound 9]
isoTOP-ABPP reactivity P27707_C9 DCK ([5]; 200 μM, insitu, 231): 4.9
isoTOP-ABPP reactivity Q96EB1_C218 ELP4 ([11]; 200 μM, insitu, 231): 8.4
isoTOP-ABPP reactivity Q9Y5Y2_C72 NUBP2 [12]; 231: 4.0

COc1ccc(C2CC(c3cccs3)=NN2C(=O)CCl)cc1 (centres unmarked) [compound 4]
isoTOP-ABPP reactivity P24468_C326 NR2F2 ([4]; 100 μM in situ 231): 20.0
isoTOP-ABPP reactivity P27707_C9 DCK ([5]; 100 μM in situ 231): 1.4
isoTOP-ABPP reactivity P68366_C54 TUBA4A ([9]; 100 μM in situ 231): 0.8
isoTOP-ABPP reactivity Q14137_C404 BOP1 ([10]; 100 μM in situ 231): 1.2
isoTOP-ABPP reactivity Q14790_C360 CASP8 ([6]; 100 μM in situ 231): 20.0
isoTOP-ABPP reactivity Q96EB1_C218 ELP4 ([11]; 100 μM in situ 231): 20.0
isoTOP-ABPP reactivity Q9NPH0_C267 ACP6 [13]: 20.0

O=C(CCl)Nc1ccc(-c2ccccc2)cc1 [compound 52]
isoTOP-ABPP reactivity profile ratio, O114933_C98 ([1]; in-vitro_ramos): 1.4
isoTOP-ABPP reactivity profile ratio, O114933_C98 ([1]; in-vitro_ramos_231): 1.4
